From patent US11845803B2, “Combination therapies for treatment of BCMA-related cancers and autoimmune disorders” (Fred Hutchinson Cancer Center, priority 2017, dated 2023)

Test system: myeloma cell lines (MM1.R, U266 and 8226)
Experiment: Soluble BCMA (sBCMA) in culture supernatant of myeloma cell lines with GSI, ELISA
Type: cell-based, human
Experimental: (I) U266 myeloma cells were washed and plated in culture media in the presence of various concentrations of GSI RO429097 (0.01 μM, 0.1 μM and 1.0 μM). The media supernatant was harvested after 1, 3, 5 and 24 hours and assayed for soluble BCMA (sBCMA) by ELISA. […] To test the effect of GSI on BCMA shedding in MM, three different myeloma cell lines (MM1.R, U266 and 8226) were washed and plated in culture media for 24 hours in the presence of various concentrations of GSI RO429097 (0.01 μM, 0.1 μM and 1.0 μM). The media supernatant was harvested and assayed for sBCMA by ELISA. sBCMA levels decreased in the supernatant in the presence of a GSI in a dose dependent manner (FIGS. 3G & 3H). To examine the effect on soluble BCMA (sBCMA) levels over time, U266 cells were washed and plated in culture media for 1, 3, 5 and 24 hours in the presence of various concentrations of GSI RO429097 (0.01 μM, 0.1 μM and 1.0 μM). The media supernatant was harvested and assayed for soluble BCMA (sBCMA) by ELISA. […] Next, the effect of removing GSI from MM cell culture was examined. […] Finally, the viability of the tested MM cell lines was not affected by addition of 1.0 μM RO429097 to culture (FIG. 3L).

CC(C)(C(=O)NCC(F)(F)C(F)(F)F)C(=O)N[C@@H]1C(=O)Nc2ccccc2-c2ccccc21 [RO4929097]
effect of GSI on surface BCMA shedding (reversibility) (1.0 μM GSI removed or continued): reversible inhibitory effect
sBCMA levels in supernatant (MM1.R, U266 and 8226, 24 hours, 0.01, 0.1 and 1.0 μM): decreased
GSI concentration at which BCMA release into supernatant was decreased (U266, 1, 3, 5 and 24 hours): at least 0.01 μM
soluble BCMA levels in supernatant over time (U266, 1, 3, 5 and 24 hours, 0.01, 0.1 and 1.0 μM): dose-dependent decrease
supernatant sBCMA following removal of GSI (after removal of 1.0 μM GSI vs continued GSI): increased when the GSI was removed
